Entries after “also recorded” stand apart in the source; their conditions may differ.

What all share (type): cell-based
The test system of assay [1] is Jurkat cells. Description: Viability Assay (Celltiter-Glo). The following applies: Homo sapiens, 4 hrs, read-out: Viability assessment EC50. As to the method:
Viability Assay (Celltiter-Glo)
DMSO was stamped into empty wells at 60 nL/well (NC, Negative Control, maximum signal). […] Following incubation, the CellTiter-Glo assay was performed according to manufacturer's instructions (Promega CellTiter-Glo Luminescent Cell Viability Assay, cat. no. G7570).

Assay [2] concerns the target IRAK4 (Homo sapiens (Human), UniProt Q9NWZ3). The assay is described as follows: Western Assay for IRAK4 Degradation. The note with it: wild-type Jurkat cells, 4 hrs; approximate. As to the method: DMSO was stamped into wells A12-H12 at 500 nL/well (NC, Negative Control, maximum signal). […] Following incubation, plates were centrifuged for 5 min at 1600 rpm. […] Cells were lysed overnight at −20° C. Plates were centrifuged for 5 min at 1600 rpm and lysate supernatants were transferred to storage plates. […] Samples were separated by running gels at constant 200 V in NuPAGE MES SDS Running Buffer. Following electrophoresis, proteins were transferred to nitrocellulose membranes using an iBlot Gel Transfer Device and iBlot Gel Transfer Stacks (Thermo cat. no. IB21001 and IB301001) and transfer method PO (20V 1 min, 23V 4 min, 25V 2 min). Membranes were blocked for 1 hr in 5% milk solution (TBS (0.2% Tween-20)).
Following blocking, membranes were incubated with primary antibody overnight at 4° C. with gentle shaking. […] Blots were washed 3× in TBS (0.2% Tween-20), 5-10 min per wash. Following washes, blots were incubated in secondary HRP-conjugated antibody (Promega anti-Rabbit IgG (H+L) HRP, cat. no. W4011), 1:5000 in 5% milk solution (TBS (0.2% Tween-20)), for 1 hr at room temperature with gentle shaking. Blots were washed 3× in TBS (0.2% Tween-20), 5-10 min per wash. Blots were incubated with 1:1 mix of ECL reagents 1 & 2 (Amersham ECL Western Blotting Detection Reagent, cat. no. RPN2106) for 2-3 min at room temperature. Bands were visualized using a Protein Simple imager. […] The data was analyzed using Alpha View software. The densitometric reading for each sample band was normalized to that of the corresponding actin band per lane.

The target in assay [3] is GSPT1 (Homo sapiens (Human), UniProt P15170+Q96SW2). Description: Western Assay for GSPT1 Degradation. The note with it: wild-type Jurkat cells, 24 hrs. As to the method: Biological Example 4 Western Assay for IRAK4, IRAK1 and GSPT1 Degradation
DMSO was stamped into wells A12-H12 at 500 nL/well (NC, Negative Control, maximum signal). […] Following incubation, plates were centrifuged for 5 min at 1600 rpm. Media was removed and cell pellets were lysed in 50 μL lysis buffer (RIPA buffer (Fisher, PI89901), cOmplete Mini EDTA-free protease inhibitor (Sigma 11836170001), Protease Inhibitor Cocktail (Sigma, P2714), Phosphatase Inhibitor Cocktail 2 and 3 (Sigma, P5726 and P0044), Benzonase (Sigma, E1014)). Cells were lysed overnight at −20° C. Plates were centrifuged for 5 min at 1600 rpm and lysate supernatants were transferred to storage plates. Protein levels were determined by BCA Assay performed according to manufacturer's protocol (EMD Millipore, cat. no. 71285-3). Samples were combined with (4×) LDS Sample Buffer and (10×) Reducing Agent and H2O to equally load 10 ug protein per lane of a 26-well NuPAGE 4-12% Bis-Tris protein gel (1.0 mm, Thermo cat. no. NP0326). Samples were separated by running gels at constant 200 V in NuPAGE MES SDS Running Buffer. Following electrophoresis, proteins were transferred to nitrocellulose membranes using an iBlot Gel Transfer Device and iBlot Gel Transfer Stacks (Thermo cat. no. IB21001 and IB301001) and transfer method PO (20V 1 min, 23V 4 min, 25V 2 min). Membranes were blocked for 1 hr in 5% milk solution (TBS (0.2% Tween-20)).
Following blocking, membranes were incubated with primary antibody overnight at 4° C. with gentle shaking. The primary antibodies and dilutions used were as follows: IRAK4—abcam ab3200612, 1:500; IRAK1—Cell Signaling Technologies D51G7 #4504, 1:500; GSPT1—Cell Signaling Technologies #14980, 1:500). Blots were washed 3× in TBS (0.2% Tween-20), 5-10 min per wash. Following washes, blots were incubated in secondary HRP-conjugated antibody (Promega anti-Rabbit IgG (H+L) HRP, cat. no. W4011), 1:5000 in 5% milk solution (TBS (0.2% Tween-20)), for 1 hr at room temperature with gentle shaking. Blots were washed 3× in TBS (0.2% Tween-20), 5-10 min per wash. Blots were incubated with 1:1 mix of ECL reagents 1 & 2 (Amersham ECL Western Blotting Detection Reagent, cat. no. RPN2106) for 2-3 min at room temperature. Bands were visualized using a Protein Simple imager. Blots were then re-probed with a combination of anti-actin antibody (Sigma Monoclonal Mouse Anti-3-Actin (clone AC-15), cat. no. A5441) and secondary HRP-conjugated antibody (Promega anti-Mouse IgG (H+L) HRP, cat. no. W4021) and similar steps were taken for incubation, wash, detection and visualization steps as above. The data was analyzed using Alpha View software. The densitometric reading for each sample band was normalized to that of the corresponding actin band per lane.

For assay [4], the target named is Ikaros (Homo sapiens (Human), UniProt Q13422+Q96SW2). Description: Flow Cytometry-Based Assay for Ikaros Degradation. The following applies: 24 hours; for DC50: Jurkat cells (Clone E6-1); for Ikaros (CRBN neosubstrate) degradation, in words: Jurkat cells. As to the method: (§1) Flow Cytometry-Based Assay for Aiolos and Ikaros Degradation
(§2) Jurkat cells (Clone E6-1) were treated with DMSO or compound for 24 hours and then fixed and permeabilized using a Foxp3/Transcription Factor Fixation/Permeabilization Kit (eBioscience, cat. no. 00-5523). Cells were stained with fluorophore-conjugated antibodies against Ikaros (Biolegend 368414) and Aiolos (Biolegend, cat. no. 371106). An additional set of DMSO-treated cells was stained with fluorophore-conjugated isotype control antibodies (Biolegend, cat. no. 400254 and 400136). Stained cells were run on an Attune N×T Acoustic Focusing Flow Cytometer (Thermo-Fisher, cat. no. A29004), and data was analyzed using FlowJo (v10.5.3) and GraphPad Prism (v7.00) software. Single cells were gated, and the geometric mean fluorescence intensities (MFIs) of Ikaros and Aiolos were calculated. The MFI of the isotype control was calculated for each analyte and used to quantify background staining. Percent Ikaros or Aiolos degradation was calculated for each compound-treated sample using the following equation: % Degradation=[…]
On the technique in general: Flow cytometry measures light scatter and fluorescence of single cells or particles in a stream.

Assay [5] deals with Aiolos (Homo sapiens (Human), UniProt Q96SW2+Q9UKT9). Description: Flow Cytometry-Based Assay for Aiolos Degradation. The note with it: 24 hours; for DC50: Jurkat cells (Clone E6-1); for Aiolos (CRBN neosubstrate) degradation, in words: Jurkat cells. How it is done: as §1, §2
Chain of Aiolos (Q9UKT9 whole entry): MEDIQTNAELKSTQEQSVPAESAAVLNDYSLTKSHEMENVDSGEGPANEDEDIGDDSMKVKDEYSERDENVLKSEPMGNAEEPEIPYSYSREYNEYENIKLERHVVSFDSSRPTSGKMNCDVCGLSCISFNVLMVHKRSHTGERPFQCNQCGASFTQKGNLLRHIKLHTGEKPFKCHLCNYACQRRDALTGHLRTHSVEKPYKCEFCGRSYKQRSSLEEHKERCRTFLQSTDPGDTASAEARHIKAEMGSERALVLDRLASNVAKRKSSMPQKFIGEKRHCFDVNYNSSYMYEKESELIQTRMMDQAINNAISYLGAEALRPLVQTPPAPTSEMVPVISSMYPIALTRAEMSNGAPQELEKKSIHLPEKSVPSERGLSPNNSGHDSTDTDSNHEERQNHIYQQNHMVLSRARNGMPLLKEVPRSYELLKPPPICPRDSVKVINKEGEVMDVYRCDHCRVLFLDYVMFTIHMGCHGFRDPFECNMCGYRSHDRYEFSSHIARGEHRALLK
Chain of Aiolos (Q96SW2 whole entry): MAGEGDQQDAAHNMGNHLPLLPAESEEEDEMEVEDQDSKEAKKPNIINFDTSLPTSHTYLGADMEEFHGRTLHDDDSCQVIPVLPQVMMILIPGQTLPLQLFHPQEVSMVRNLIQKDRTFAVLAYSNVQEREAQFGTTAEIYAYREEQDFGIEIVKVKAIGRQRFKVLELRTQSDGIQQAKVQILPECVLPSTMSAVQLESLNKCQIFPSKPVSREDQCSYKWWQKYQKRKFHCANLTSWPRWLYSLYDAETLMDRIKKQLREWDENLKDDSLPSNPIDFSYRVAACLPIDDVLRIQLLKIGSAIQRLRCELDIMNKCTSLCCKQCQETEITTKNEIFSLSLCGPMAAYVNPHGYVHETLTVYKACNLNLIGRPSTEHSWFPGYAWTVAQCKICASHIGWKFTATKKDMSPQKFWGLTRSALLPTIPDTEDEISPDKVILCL
Chain of Aiolos (Q16531 whole entry partner): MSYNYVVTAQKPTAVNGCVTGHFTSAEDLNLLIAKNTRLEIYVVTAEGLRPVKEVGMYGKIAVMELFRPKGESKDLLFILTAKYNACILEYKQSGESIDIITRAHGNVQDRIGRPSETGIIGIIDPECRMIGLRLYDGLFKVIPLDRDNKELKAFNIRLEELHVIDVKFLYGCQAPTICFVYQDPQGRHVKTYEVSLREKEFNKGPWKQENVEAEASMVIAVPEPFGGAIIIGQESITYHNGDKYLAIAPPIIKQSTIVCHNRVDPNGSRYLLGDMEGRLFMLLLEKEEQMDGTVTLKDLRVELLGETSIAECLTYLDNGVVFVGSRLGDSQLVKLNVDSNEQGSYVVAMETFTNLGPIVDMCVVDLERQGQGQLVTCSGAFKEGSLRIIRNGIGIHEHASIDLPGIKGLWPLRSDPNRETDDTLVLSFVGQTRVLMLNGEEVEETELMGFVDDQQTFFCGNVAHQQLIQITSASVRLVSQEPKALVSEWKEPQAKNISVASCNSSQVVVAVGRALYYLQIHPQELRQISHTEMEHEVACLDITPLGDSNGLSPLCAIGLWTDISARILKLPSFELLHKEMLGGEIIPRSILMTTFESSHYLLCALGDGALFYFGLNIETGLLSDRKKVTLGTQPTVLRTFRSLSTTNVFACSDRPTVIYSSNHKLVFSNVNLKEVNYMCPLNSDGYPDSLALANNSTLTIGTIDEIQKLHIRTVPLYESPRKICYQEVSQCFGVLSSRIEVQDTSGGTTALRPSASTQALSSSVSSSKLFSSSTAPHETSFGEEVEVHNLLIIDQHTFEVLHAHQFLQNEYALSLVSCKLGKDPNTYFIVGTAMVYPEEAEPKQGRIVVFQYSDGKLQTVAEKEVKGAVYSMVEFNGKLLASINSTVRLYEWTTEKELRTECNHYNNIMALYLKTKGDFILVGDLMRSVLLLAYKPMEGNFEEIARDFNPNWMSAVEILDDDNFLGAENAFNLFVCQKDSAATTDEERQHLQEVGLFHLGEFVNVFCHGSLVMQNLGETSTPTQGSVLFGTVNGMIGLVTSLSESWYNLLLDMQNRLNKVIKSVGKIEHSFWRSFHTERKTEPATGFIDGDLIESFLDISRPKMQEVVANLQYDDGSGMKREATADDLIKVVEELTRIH

Chain of GSPT1 (P15170 whole entry): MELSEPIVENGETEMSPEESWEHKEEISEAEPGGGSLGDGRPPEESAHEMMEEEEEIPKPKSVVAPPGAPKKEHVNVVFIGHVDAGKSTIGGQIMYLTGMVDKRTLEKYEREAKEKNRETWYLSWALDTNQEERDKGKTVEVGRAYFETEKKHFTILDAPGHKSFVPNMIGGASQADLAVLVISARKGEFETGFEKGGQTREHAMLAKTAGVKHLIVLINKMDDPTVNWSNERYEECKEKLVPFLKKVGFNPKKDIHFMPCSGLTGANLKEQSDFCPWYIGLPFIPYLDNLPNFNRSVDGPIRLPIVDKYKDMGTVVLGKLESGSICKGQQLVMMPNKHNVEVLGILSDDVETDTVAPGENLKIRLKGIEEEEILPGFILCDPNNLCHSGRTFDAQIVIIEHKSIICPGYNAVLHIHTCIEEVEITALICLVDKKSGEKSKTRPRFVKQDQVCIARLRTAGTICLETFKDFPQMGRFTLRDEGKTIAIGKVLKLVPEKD
Chain of GSPT1 (Q96SW2 whole entry): as the sequence (Q96SW2 whole entry) above
Chain of GSPT1 (Q16531 whole entry partner): as the sequence (Q16531 whole entry partner) above
Chain of IRAK4 (Q9NWZ3 whole entry): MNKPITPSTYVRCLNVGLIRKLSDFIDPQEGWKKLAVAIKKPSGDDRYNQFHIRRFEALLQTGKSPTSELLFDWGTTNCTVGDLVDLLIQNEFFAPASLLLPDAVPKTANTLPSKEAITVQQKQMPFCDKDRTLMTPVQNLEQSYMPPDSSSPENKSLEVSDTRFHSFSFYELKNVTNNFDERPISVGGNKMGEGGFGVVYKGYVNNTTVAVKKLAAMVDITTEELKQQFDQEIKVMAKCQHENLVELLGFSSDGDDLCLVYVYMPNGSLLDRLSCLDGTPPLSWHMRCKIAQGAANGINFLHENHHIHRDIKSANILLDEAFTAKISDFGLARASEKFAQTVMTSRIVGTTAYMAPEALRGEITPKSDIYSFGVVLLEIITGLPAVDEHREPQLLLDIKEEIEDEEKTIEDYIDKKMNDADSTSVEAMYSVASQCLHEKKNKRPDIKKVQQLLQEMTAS
Chain of Ikaros (Q13422 whole entry): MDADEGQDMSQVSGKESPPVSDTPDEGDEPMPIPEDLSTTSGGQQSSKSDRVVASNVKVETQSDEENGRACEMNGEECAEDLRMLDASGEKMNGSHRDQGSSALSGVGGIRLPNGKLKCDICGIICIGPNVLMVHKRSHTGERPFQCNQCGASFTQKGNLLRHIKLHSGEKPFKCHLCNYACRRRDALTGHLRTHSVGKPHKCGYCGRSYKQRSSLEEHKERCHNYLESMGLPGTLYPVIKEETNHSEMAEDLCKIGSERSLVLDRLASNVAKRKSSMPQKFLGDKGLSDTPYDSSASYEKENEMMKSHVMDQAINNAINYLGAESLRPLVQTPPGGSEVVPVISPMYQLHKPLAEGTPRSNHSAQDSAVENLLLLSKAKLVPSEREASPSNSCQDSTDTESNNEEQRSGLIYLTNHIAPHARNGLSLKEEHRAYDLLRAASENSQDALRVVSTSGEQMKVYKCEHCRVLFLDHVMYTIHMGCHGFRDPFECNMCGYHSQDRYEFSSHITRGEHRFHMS
Chain of Ikaros (Q96SW2 whole entry): as the sequence (Q96SW2 whole entry) above
Chain of Ikaros (Q16531 whole entry partner): as the sequence (Q16531 whole entry partner) above

With `CC(C)Nc1cc(-c2ccc3cc(C#N)cnn23)ncc1-c1nnc(N2CCN(C(=O)C3CCN(Cc4ccc5c(c4)C(=O)N(C4CCC(=O)NC4=O)C5=O)CC3)CC2)s1` (stereo not shown) [Example 13, 7-(5-(5-(4-(1-((2-(2,6-dioxopiperidin-3-yl)-1,3-dioxoisoindolin-5-yl)methyl)piperidine-4-carbonyl)piperazin-1-yl)-1,3,4-thiadiazol-2-yl)-4-(isopropylamino)pyridin-2-yl)pyrrolo[1,2-b]pyridazine-3-carbonitrile], the EC50 in assay [1] is above 10 µM. Moreover, the DC50 in assay [2] was 0.014 µM; in assay [3], above 10 µM; in assay [4], above 5 µM; in assay [5], above 5 µM. The compound also yielded a Dmax in assay [2] of 87%. The “Ikaros (CRBN neosubstrate) degradation, in words” value (“Ikaros” for short) in assay [4] is “none of Compounds 13, 24, 47, and 35 displayed neosubstrate degradation”. In assay [5], the “Aiolos (CRBN neosubstrate) degradation, in words” value (“Aiolos” for short) is “none of Compounds 13, 24, 47, and 35 displayed neosubstrate degradation”.

Turning to `Cc1ncsc1-c1ccc(CNC(=O)[C@@H]2C[C@@H](O)CN2C(=O)[C@@H](NC(=O)C2(F)CC2)C(C)(C)C)c(OCCOCCC(=O)N2CCN(c3nnc(-c4cnc(-c5ccc6cc(C#N)cnn56)cc4NC(C)C)s3)CC2)c1` [Example 47, (2S,4R)—N-(2-(2-(3-(4-(5-(6-(3-cyanopyrrolo[1,2-b]pyridazin-7-yl)-4-(isopropylamino)pyridin-3-yl)-1,3,4-thiadiazol-2-yl)piperazin-1-yl)-3-oxopropoxy)ethoxy)-4-(4-methylthiazol-5-yl)benzyl)-1-((S)-2-(1-fluorocyclopropane-1-carboxamido)-3,3-dimethylbutanoyl)-4-hydroxypyrrolidine-2-carboxamide], in assay [1], the EC50 was above 10 µM. For the same compound, in assay [2], half-maximal degradation (DC50) was put at 0.089 µM and the Dmax worked out at 99%. The DC50 in assay [3] was above 10 µM. For the same compound, in assay [4], the DC50 is above 5 µM; the “Ikaros” value is “none of Compounds 13, 24, 47, and 35 displayed neosubstrate degradation”. Moreover, in assay [5], the half-maximal degradation concentration (DC50) was above 5 µM; the “Aiolos” value was “none of Compounds 13, 24, 47, and 35 displayed neosubstrate degradation”.

For `NC(=O)c1nn(-c2ccc(C(=O)NCCOCCOCCNc3cccc4c3C(=O)N(C3CCC(=O)NC3=O)C4=O)cc2)cc1NC(=O)c1coc(-c2ccnc(NCC(F)(F)F)c2)n1` (stereo not shown) [Comparative Compound a2, reference compound], the EC50 in assay [1] was above 10 µM. In assay [2], this compound displayed a DC50 of 0.001 µM and a Dmax of 54%. In assay [3], the DC50 was above 10 µM. Moreover, in assay [4], the DC50 was 0.02 µM; the “Ikaros” value is “induced neosubstrate degradation; also recorded: degraded both Ikaros and Aiolos”. For the same compound, in assay [5], the DC50 was 0.02 µM; the “Aiolos” value was “induced neosubstrate degradation; also recorded: degraded both Ikaros and Aiolos”.

As to `CC[C@@H]1[C@H](F)C(=O)N[C@@H]1COc1ncc(C#CCN2CCC3(CC2)CCN(c2ncc(C(=O)N[C@H](C(=O)N4C[C@H](O)C[C@H]4C(=O)NCc4ccc(-c5scnc5C)cc4)C(C)(C)C)cn2)CC3)c2cc(C(N)=O)c(OC)cc12` [Comparative b1, reference compound], the EC50 in assay [1] is above 10 µM. Also, the 50% degradation concentration (DC50) is 0.07 µM in assay [2], above 10 µM in assay [3], above 5 µM in assay [4] and above 5 µM in assay [5]. Further, the Dmax in assay [2] came to 86%.

In the case of `CC(C)Nc1cc(-c2ccc3cc(C#N)cnn23)ncc1-c1nnc(N2CCN(C(=O)C3CCN(CC4CCN(c5ccc(-c6nn(C7CCC(=O)NC7=O)c(=O)n6C)cc5)CC4)CC3)CC2)s1` (stereo not shown) [Example 24, 7-(5-(5-(4-(1-((1-(4-(1-(2,6-dioxopiperidin-3-yl)-4-methyl-5-oxo-4,5-dihydro-1H-1,2,4-triazol-3-yl)phenyl)piperidin-4-yl)methyl)piperidine-4-carbonyl)piperazin-1-yl)-1,3,4-thiadiazol-2-yl)-4-(isopropylamino)pyridin-2-yl)pyrrolo[1,2-b]pyridazine-3-carbonitrile], the EC50 in assay [1] was above 10 µM. In addition, in assay [2], it took 0.2 µM to reach half-maximal degradation (DC50) and the Dmax stood at 90%. Moreover, the DC50 in assay [3] was above 10 µM. In addition, in assay [4], the DC50 was above 5 µM; the “Ikaros” value was “none of Compounds 13, 24, 47, and 35 displayed neosubstrate degradation”. Besides, in assay [5], the DC50 is above 5 µM; the “Aiolos” value is “none of Compounds 13, 24, 47, and 35 displayed neosubstrate degradation”.

For the compound `Cc1ncsc1-c1ccc(CNC(=O)[C@@H]2C[C@@H](O)CN2C(=O)[C@@H](NC(=O)CCCC(=O)N2CCN(c3nnc(-c4cnc(-c5ccc6cc(C#N)cnn56)cc4NC(C)C)s3)CC2)C(C)(C)C)cc1` [Example 35, (2S,4R)-1-((S)-2-(5-(4-(5-(6-(3-cyanopyrrolo[1,2-b]pyridazin-7-yl)-4-(isopropylamino)pyridin-3-yl)-1,3,4-thiadiazol-2-yl)piperazin-1-yl)-5-oxopentanamido)-3,3-dimethylbutanoyl)-4-hydroxy-N-(4-(4-methylthiazol-5-yl)benzyl)pyrrolidine-2-carboxamide], the EC50 in assay [1] is above 10 µM. In addition, in assay [2], it took 0.2 µM to reach half-maximal degradation (DC50) and the Dmax was determined as 86%. Further, in assay [3], the 50% degradation concentration (DC50) was above 10 µM. Further, in assay [4], the DC50 is above 5 µM; the “Ikaros” value is “none of Compounds 13, 24, 47, and 35 displayed neosubstrate degradation”. For the same compound, in assay [5], the DC50 is above 5 µM; the “Aiolos” value is “none of Compounds 13, 24, 47, and 35 displayed neosubstrate degradation”.

For orientation: EC50 means the concentration that produces a half-maximal response. The DC50 is the concentration giving 50% degradation. One may read the Dmax as the largest share of the target that was removed.

The values are drawn from US12528814B2, “Bifunctional degraders of interleukin-1 receptor-associated kinases and therapeutic use thereof” (NURIX THERAPEUTICS, INC., priority 2020, dated 2026).
